Measured values reported in US7579356B2, “Thia-tetraazaacenaphthylene kinase inhibitors” (Janssen Pharmaceutica NV, priority 2005, dated 2009).
“And” between values parts separate entries of the source, which are not always exact repeats. Equal values may be shown once.

Assays:
Assay type in all cases: biochemical
[1] = biological target: T1, Lyn kinase (human) (Homo sapiens, UniProt P07948); assay: Lyn Kinase Assay; conditions: for % Inhibition (Lyn) / inhibition at 2 µM: test concentration of 2 μM; for % Inhibition (Lyn): 2 µM
T1 construct: purchased Upstate Biotechnology, Lake Placid, N.Y
Summary of the method: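 Radiometric filter-binding assay with recombinant human Lyn, poly(Glu,Tyr) substrate (0.1 mg/mL final), 5 μM ATP plus γ-33P-ATP in MOPS pH 7.5/Mg acetate buffer; 40 min at 30 °C, stopped with phosphoric acid, counted by scintillation. Reported as percent inhibition at 2 μM, with IC50 (μM) where determined.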

[2] = biological target: T2, HER-2 (Homo sapiens, UniProt P04626); assay: HER-2 Kinase Assay; conditions: for inhibition at 1 µM: test concentration of 1 μM; for IC50: value in parentheses
T2 construct: His6 with thrombin site (N); purchased Proqinase (Freiburg, Germany)
Summary of the method: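 Read-out was scintillation counting of 33P incorporated into biotinylated polyGluTyr captured on streptavidin plates. Reactions ran 1 h at 30 °C with GST-fused HER-2 residues 679–1255, 1 μM ATP, Mn2+ and Mg2+ at pH 7.5; data given as percent inhibition at 1 μM, with IC50 where determined.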

[3] = biological target: T3, c-Src kinase (human) (Homo sapiens, UniProt P12931); assay: c-Src Kinase Assay; conditions: for inhibition at 2 µM / c-Src % Inhibition: test concentration of 2 μM, multiple values are separate assay results; for c-Src % Inhibition: 2 µM; for IC50: read-out: c-Src IC50 (in parentheses)
T3 construct: purchased Upstate Biotechnology, Lake Placid, N.Y
Summary of the method: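 Inhibition was read as 33P incorporation, counted on P30 filtermats, after a 40 min, 30° C reaction. Human c-Src acted on 100 μM Cdc2 peptide with 5 μM ATP (final), pH 7.0 MOPS/MgCl2. Values are percent inhibition at 2 μM compound, or IC50 where determined.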

T2 sequence (P04626 679-1255): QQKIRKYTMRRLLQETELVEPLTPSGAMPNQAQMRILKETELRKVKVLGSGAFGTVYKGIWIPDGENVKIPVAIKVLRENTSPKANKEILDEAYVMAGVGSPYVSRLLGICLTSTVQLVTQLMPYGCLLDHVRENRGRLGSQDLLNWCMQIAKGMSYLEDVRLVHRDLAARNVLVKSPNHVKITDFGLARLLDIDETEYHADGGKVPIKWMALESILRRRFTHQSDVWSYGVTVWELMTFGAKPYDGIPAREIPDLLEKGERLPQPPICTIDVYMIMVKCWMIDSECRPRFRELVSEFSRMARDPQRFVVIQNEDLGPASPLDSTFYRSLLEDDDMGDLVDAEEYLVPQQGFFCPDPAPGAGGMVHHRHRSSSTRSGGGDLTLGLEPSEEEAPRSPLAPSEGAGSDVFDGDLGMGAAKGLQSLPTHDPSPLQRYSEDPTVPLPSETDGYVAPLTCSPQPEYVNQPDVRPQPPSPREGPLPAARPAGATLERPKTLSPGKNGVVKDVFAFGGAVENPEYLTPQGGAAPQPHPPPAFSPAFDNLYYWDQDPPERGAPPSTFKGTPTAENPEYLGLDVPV
T1 sequence (P07948 whole entry): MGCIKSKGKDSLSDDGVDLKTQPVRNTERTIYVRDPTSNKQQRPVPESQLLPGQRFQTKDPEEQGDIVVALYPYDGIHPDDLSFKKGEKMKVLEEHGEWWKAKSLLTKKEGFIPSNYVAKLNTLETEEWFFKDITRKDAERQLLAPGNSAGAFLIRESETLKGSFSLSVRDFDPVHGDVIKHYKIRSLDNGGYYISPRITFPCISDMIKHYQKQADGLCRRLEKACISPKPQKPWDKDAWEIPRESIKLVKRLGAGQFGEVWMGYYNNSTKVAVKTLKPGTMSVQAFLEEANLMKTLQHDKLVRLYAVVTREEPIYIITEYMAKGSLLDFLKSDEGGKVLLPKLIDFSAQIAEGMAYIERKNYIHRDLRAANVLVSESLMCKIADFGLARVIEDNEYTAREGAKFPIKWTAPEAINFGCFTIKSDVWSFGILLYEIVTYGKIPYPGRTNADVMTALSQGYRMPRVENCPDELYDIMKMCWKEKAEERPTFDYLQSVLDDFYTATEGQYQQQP
T3 sequence (P12931 whole entry): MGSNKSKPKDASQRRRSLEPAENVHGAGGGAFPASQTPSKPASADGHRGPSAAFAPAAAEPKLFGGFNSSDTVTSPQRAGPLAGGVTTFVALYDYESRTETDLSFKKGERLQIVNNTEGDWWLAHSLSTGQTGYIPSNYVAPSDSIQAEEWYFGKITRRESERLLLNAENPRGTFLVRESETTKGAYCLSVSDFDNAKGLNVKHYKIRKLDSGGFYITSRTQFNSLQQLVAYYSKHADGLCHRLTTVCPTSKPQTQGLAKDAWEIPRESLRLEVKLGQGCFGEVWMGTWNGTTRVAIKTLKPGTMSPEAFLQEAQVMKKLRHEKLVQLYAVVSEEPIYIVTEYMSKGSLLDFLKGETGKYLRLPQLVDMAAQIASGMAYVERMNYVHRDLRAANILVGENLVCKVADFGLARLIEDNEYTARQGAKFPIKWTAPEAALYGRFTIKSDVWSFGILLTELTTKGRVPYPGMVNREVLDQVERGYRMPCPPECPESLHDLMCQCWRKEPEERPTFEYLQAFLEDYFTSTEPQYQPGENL

| SMILES | % Inhibition (Lyn) [1] | inhibition at 1 µM [2] [%] | IC50 [2] [nM] | inhibition at 2 µM [3] [%] | inhibition at 2 µM [1] [%] | c-Src % Inhibition [3] | IC50 [3] [nM] | IC50 ([1]; value in parentheses) [nM] |
| --- | --- | --- | --- | --- | --- | --- | --- | --- |
| O=C(Nc1ccc(CN2CCCCC2)cc1)c1sc2ncnc3c2c1NC(=O)N3c1ccc(OCc2ccccn2)c(Cl)c1 [Cpd 89, 5-[3-chloro-4-(pyridin-2-ylmethoxy)-phenyl]-4-oxo-4,5-dihydro-3H-1-thia-3,5,6,8-tetraaza-acenaphthylene-2-carboxylic acid (4-piperidin-1-ylmethyl-phenyl)-amide] | 4% and 0.5% | 93 | 69 | 44 | – | – | – | – |
| CN1CCN(Cc2ccc(NC(=O)c3sc4ncnc5c4c3NC(=O)N5c3ccc(OCc4ccccn4)c(Cl)c3)cc2)CC1 [Cpd 90, 5-[3-chloro-4-(pyridin-2-ylmethoxy)-phenyl]-4-oxo-4,5-dihydro-3H-1-thia-3,5,6,8-tetraaza-acenaphthylene-2-carboxylic acid [4-(4-methyl-piperazin-1-ylmethyl)-phenyl]-amide] | – | 82 | 503 | 8 | -8.1 | 4% | – | – |
| CC(C)(C)OC(=O)N1CCC(NC(=O)c2sc3ncnc4c3c2NC(=O)N4c2ccc3c(ccn3Cc3cccc(F)c3)c2)CC1 [Cpd 91, 4-({5-[1-(3-fluoro-benzyl)-1H-indol-5-yl]-4-oxo-4,5-dihydro-3H-1-thia-3,5,6,8-tetraaza-acenaphthylene-2-carbonyl}-amino)-piperidine-1-carboxylic acid tert-butyl ester] | – | – | 2180 | -37 | 7 | – | – | – |
| O=C(NCCN1CCOCC1)c1sc2ncnc3c2c1NC(=O)N3c1ccc2c(ccn2Cc2cccc(F)c2)c1 [Cpd 93, 5-[1-(3-fluoro-benzyl)-1H-indol-5-yl]-4-oxo-4,5-dihydro-3H-1-thia-3,5,6,8-tetraaza-acenaphthylene-2-carboxylic acid (2-morpholin-4-yl-ethyl)-amide] | – | – | 779 | 41 | 16 | – | – | – |
| O=C(Nc1ccc(N2CCOCC2)cc1)c1sc2ncnc3c2c1NC(=O)N3c1ccc2c(ccn2Cc2cccc(F)c2)c1 [Cpd 94, 5-[1-(3-fluoro-benzyl)-1H-indol-5-yl]-4-oxo-4,5-dihydro-3H-1-thia-3,5,6,8-tetraaza-acenaphthylene-2-carboxylic acid (4-morpholin-4-yl-phenyl)-amide] | – | – | ~10000 | -39 | 3 | – | – | – |
| O=C(NCCCN1CCOCC1)c1sc2ncnc3c2c1NC(=O)N3c1ccc2c(ccn2Cc2cccc(F)c2)c1 [Cpd 95, 5-[1-(3-fluoro-benzyl)-1H-indol-5-yl]-4-oxo-4,5-dihydro-3H-1-thia-3,5,6,8-tetraaza-acenaphthylene-2-carboxylic acid (3-morpholin-4-yl-propyl)-amide] | – | – | 350 | -15 | 18 | – | – | – |
| O=C(Nc1ccc(CN2CCCCC2)cc1)c1sc2ncnc3c2c1NC(=O)N3c1ccc(Oc2ccccc2)cc1 [Cpd 96, 4-oxo-5-(4-phenoxy-phenyl)-4,5-dihydro-3H-1-thia-3,5,6,8-tetraaza-acenaphthylene-2-carboxylic acid (4-piperidin-1-ylmethyl-phenyl)-amide] | 16.8% | 98 | 41 | – | 27 | – | > 200000 | – |
| O=C(Nc1ccc(CN2CCOCC2)cc1)c1sc2ncnc3c2c1NC(=O)N3c1ccc(Oc2ccccc2)cc1 [Cpd 97, 4-oxo-5-(4-phenoxy-phenyl)-4,5-dihydro-3H-1-thia-3,5,6,8-tetraaza-acenaphthylene-2-carboxylic acid (4-morpholin-4-ylmethyl-phenyl)-amide] | 26.6% | 97 | 27 | – | 36.5 | – | ~2000 | – |
| CN1CCN(Cc2ccc(NC(=O)c3sc4ncnc5c4c3NC(=O)N5c3ccc(Oc4ccccc4)cc3)cc2)CC1 [Cpd 98, 4-oxo-5-(4-phenoxy-phenyl)-4,5-dihydro-3H-1-thia-3,5,6,8-tetraaza-acenaphthylene-2-carboxylic acid [4-(4-methyl-piperazin-1-ylmethyl)-phenyl]-amide] | 50.0% | 95 | 88 | – | 30.7 | 63% and 41% | 592 | – |
| COc1cc(NC(=O)c2sc3ncnc4c3c2NC(=O)N4c2ccc(Oc3ccccc3)cc2)ccc1OCCN1CCCCC1 [Cpd 100, 4-oxo-5-(4-phenoxy-phenyl)-4,5-dihydro-3H-1-thia-3,5,6,8-tetraaza-acenaphthylene-2-carboxylic acid [3-methoxy-4-(2-piperidin-1-yl-ethoxy)-phenyl]-amide] | 50% | 95 | 111 | – | 40 | – | > 200000 | – |
| CCOC(=O)c1sc2ncnc3c2c1NC(=O)N3c1ccc(C)c(Br)c1 [Cpd 102, 5-(3-bromo-4-methyl-phenyl)-4-oxo-4,5-dihydro-3H-1-thia-3,5,6,8-tetraaza-acenaphthylene-2-carboxylic acid ethyl ester] | 13% | – | > 100000 | – | 8 | 3% and 12% | – | – |
| O=C(Nc1ccc(CN2CCOCC2)cc1)c1sc2ncnc3c2c1NC(=O)N3c1c(Cl)cccc1Cl [Cpd 104, 5-(2,6-dichloro-phenyl)-4-oxo-4,5-dihydro-3H-1-thia-3,5,6,8-tetraaza-acenaphthylene-2-carboxylic acid (4-morpholin-4-ylmethyl-phenyl)-amide] | 69% | – | 7070 | 55 | 70 | 60% | 1840 | – |
| Cc1ccc(N2C(=O)Nc3c(C(=O)Nc4ccc(CN5CCOCC5)cc4)sc4ncnc2c34)cc1Br [Cpd 108, 5-(3-bromo-4-methyl-phenyl)-4-oxo-4,5-dihydro-3H-1-thia-3,5,6,8-tetraaza-acenaphthylene-2-carboxylic acid (4-morpholin-4-ylmethyl-phenyl)-amide] | – | – | 148 | 19 | 69 | – | – | – |
| Cc1ccc(Br)cc1N1C(=O)Nc2c(C(=O)Nc3ccc(CN4CCOCC4)cc3)sc3ncnc1c23 [Cpd 109, 5-(5-bromo-2-methyl-phenyl)-4-oxo-4,5-dihydro-3H-1-thia-3,5,6,8-tetraaza-acenaphthylene-2-carboxylic acid (4-morpholin-4-ylmethyl-phenyl)-amide] | – | – | 684 | 31 | 75 | – | – | – |
| O=C(Nc1ccc(CN2CCOCC2)cc1)c1sc2ncnc3c2c1NC(=O)N3c1ccc(Oc2ccc(F)cc2)cc1 [Cpd 110, 5-[4-(4-fluoro-phenoxy)-phenyl]-4-oxo-4,5-dihydro-3H-1-thia-3,5,6,8-tetraaza-acenaphthylene-2-carboxylic acid (4-morpholin-4-ylmethyl-phenyl)-amide] | – | – | 161 | 16 | 21 | – | – | – |
| O=C(Nc1ccc(CN2CCOCC2)cc1)c1sc2ncnc3c2c1NC(=O)N3c1ccc(Oc2ccccc2)c(F)c1 [Cpd 113, 5-(3-fluoro-4-phenoxy-phenyl)-4-oxo-4,5-dihydro-3H-1-thia-3,5,6,8-tetraaza-acenaphthylene-2-carboxylic acid (4-morpholin-4-ylmethyl-phenyl)-amide] | 55% | 83 | 89 | 68 | 60 | 54% | – | – |
| Cc1ccc(N2C(=O)Nc3c(C(=O)NC4CCN(C)CC4)sc4ncnc2c34)cc1Br [Cpd 116, 5-(3-bromo-4-methyl-phenyl)-4-oxo-4,5-dihydro-3H-1-thia-3,5,6,8-tetraaza-acenaphthylene-2-carboxylic acid (1-methyl-piperidin-4-yl)-amide] | – | – | 1700 | -7 | -2 | – | – | – |
| Cc1ccc(Br)cc1N1C(=O)Nc2c(C(=O)NC3CCN(C)CC3)sc3ncnc1c23 [Cpd 117, 5-(5-bromo-2-methyl-phenyl)-4-oxo-4,5-dihydro-3H-1-thia-3,5,6,8-tetraaza-acenaphthylene-2-carboxylic acid (1-methyl-piperidin-4-yl)-amide] | – | – | 13000 | 25 | 12 | – | – | – |
| CN1CCC(NC(=O)c2sc3ncnc4c3c2NC(=O)N4c2ccc(Oc3ccc(F)cc3)cc2)CC1 [Cpd 118, 5-[4-(4-fluoro-phenoxy)-phenyl]-4-oxo-4,5-dihydro-3H-1-thia-3,5,6,8-tetraaza-acenaphthylene-2-carboxylic acid (1-methyl-piperidin-4-yl)-amide] | – | – | ~100000 | 15 | 12 | – | – | – |
| O=C(Nc1ccc(CN2CCOCC2)cc1)c1sc2ncnc3c2c1NC(=O)N3c1ccc(N2CCOCC2)cc1 [Cpd 123, 5-(4-morpholin-4-yl-phenyl)-4-oxo-4,5-dihydro-3H-1-thia-3,5,6,8-tetraaza-acenaphthylene-2-carboxylic acid (4-morpholin-4-ylmethyl-phenyl)-amide] | – | – | > 100000 | 77 | 55 | – | 545 | 1440 |
